Results: patent US7744860B2, “Reduced bioirritant composition” (Minu LLC, priority 1999, dated 2010)
Where “and” joins values, the source holds several entries; their conditions need not be identical. Equal values may be shown once. Entries after “also recorded” stand apart in the source; their conditions may differ.

What was measured:
[1] = electroretinogram (ERG) after ascorbic acid administration; type: in vivo, Rats
Description: The effect of pH neutralized and non-neutralized ascorbic acid administered topically to eyes at various concentrations was determined. Rats were subject to induced corneal neovascularization as previously described and administered pH neutralized and non-neutralized ascorbic acid and saline (control) at the same concentrations as previously described. An electroretinogram (ERG) was performed to evaluate the eye's electrical responses to a flash of light using an electrode placed on the surface of the eye (e.g., cornea) as known to one skilled in the art.

[2] = test system: corneal neovascularization; assay: silver nitrate cauterization induced corneal neovascularization, topical treatment; type: in vivo, male Long Evans pigmented rats; conditions: for Degree of Corneal Neovascularization, OD / Degree of Corneal Neovascularization, OS / mean inhibition of neovascularization / mean percent of neovascularization relative to total corneal area: topical twice a day for seven days; for Degree of Corneal Neovascularization, OD / Degree of Corneal Neovascularization, OS: individual subjects
Description: Neovascularization was induced in all eyes using silver nitrate cauterization. The animals were first anesthetized by intraperitoneal injection of a mixture of ketamine hydrochloride (25 mg/kg) with xylazine hydrochloride (5 mg/kg). The cornea was then anesthetized by a drop of 0.5% proparacaine hydrochloride and allowed to dry. One cornea of each animal was cauterized by pressing an applicator stick (diameter of 1.8 mm) coated with 75% silver nitrate/25% potassium nitrate (Arzol Chemical Co., Keen, N.H.) to the central cornea for ten seconds (using a stopwatch) under the operating microscope. Excess silver nitrate was removed by rinsing the eyes with 5 ml balanced salt solution. To increase the reproducibility of the injuries, one investigator cauterized all animals. Following cauterization, the animals were randomly divided into six groups to eliminate any potential bias in the degree of burns within the different groups. Two drops of each drug were applied topically to each cornea immediately following cauterization; treatments were administered two times per day for seven days.
Group 1 (number of animals (n)=8) received 100 mg/ml pH non-neutralized ascorbic acid. All remaining experimental groups received ascorbic acid neutralized to about pH 7 as previously described in the following concentrations: Group 2 (n=8) received 100 mg/ml (10%^w/v) neutralized ascorbic acid; Group 3 (n=8) received 50 mg/ml (5%^w/v) neutralized ascorbic acid; Group 4 (n=8) received 10 mg/ml (1%^w/v) neutralized ascorbic acid; Group 5 (n=8) received 5 mg/ml neutralized ascorbic acid (0.5%^w/v); Group 6 (n=8) received 1 mg/ml neutralized ascorbic acid (0.1%^w/v); Group 7 (n=8) received 500 μg/ml neutralized ascorbic acid (0.05%^w/v); Group 8 (n=8) received 250 μg/ml neutralized ascorbic acid (0.025%^w/v). Group 9 (n=8) received two drops of saline and served as the control. All concentrations of ascorbic acid were titrated with saline.
The presence of new vessels (neovascularization) and the extent of new vessel formation was assessed by slit lamp photography and in some embodiments, by histology. Inhibition of vessel proliferation was evaluated by measuring vessel progression from the outer cornea (corneal limbus) into the cornea. As previously described, it will be appreciated that any reduction of new vessel proliferation and/or regression of existing vessels is therapeutic, and that complete inhibition and/or regression is not required, and also that reduction includes regression of existing vessels.
All animals were anesthetized as described above and their corneas evaluated by slit-lamp microscopy on the third and sixth days. Corneal photographs were taken with ×25 magnification using a camera attached to the slit-lamp microscope (Topcon SL-7E, Tokyo Japan) on the seventh day. Neovascularization was evaluated by an examiner who was blinded as to the treatment groups to minimize the observer bias.
Corneal neovascularization was assessed by scanning (Cano scan 9900F, Canon, Tokyo Japan) the slit lamp photographs into high resolution digital images. The corneal surface covered with neovascular vessels was measured on the photographs as the percentage of the total area of the cornea. The percentage area of corneal neovascularization was determined by outlining the areas with corneal vessels and comparing these to the total corneal surface using image j software (Wayne Rasband at the Research Services Branch,-National Institute of Mental Health, Bethesda Md.). The area of neovascularization was measured in terms of pixels and its ratio to the entire corneal area was determined as the percentage of corneal neovascularization. The extent of the scar was also evaluated by calculating the percentage of the corneal surface that was covered by the scar. A drawing of corneal blood vessels was made to compare with digital photos and ensure that no vascular area was omitted during calculation of percent area. […]

[3] = 100 mg/ml, mean ± standard deviation, n = 8
[4] = 100 mg/ml, listed as pH neutralized ascorbic acid

## O=C1O[C@H]([C@@H](O)CO)C(O)=C1O [Ascorbic Acid Non pH Neutralized, ascorbic acid, reference compound]
[1]; 1 mg/ml, n=6
  decrease in ERG: no significant decrease in ERG
[1]; 10 mg/ml, n=6
  decrease in ERG: no significant decrease in ERG
[1]; 100 mg/ml, two eyes, listed as non-pH neutralized ascorbic acid
  decrease in ERG: 60% and 70%
[1]; 100 mg/ml, listed as non-pH neutralized ascorbic acid
  ocular findings (retinal detachment, cataracts, vitreous haze, retinal edema): partial retinal detachment
[2]; 100 mg (100 mg/ml)
  Degree of Corneal Neovascularization, OD: 10% and 25% and 20% and 0%
  Degree of Corneal Neovascularization, OS: 33% and 30% and 22% and 0%
[2]; 100 mg/ml
  mean inhibition of neovascularization: about 81%
[2]; [3]
  mean percent of neovascularization relative to total corneal area: AVE = 17.5 ± 12.8% (n = 8)
[2]; 100 mg/ml, mean ± standard deviation, n = 8, listed as ascorbic acid non-pH neutralized
  mean percent of neovascularization relative to total corneal area: about 19%
[2]; 100 mg/ml, mean ± standard deviation, n = 8, listed as non-neutralized ascorbic acid
  mean percent of neovascularization relative to total corneal area: 17.5%
[2]; 100 mg/ml, listed as non-neutralized ascorbic acid
  mean inhibition of neovascularization: 82.5%

## O=C1O[C@H]([C@@H](O)CO)C(O)=C1O [Ascorbic Acid pH Neutralized, ascorbic acid]
[1]; 1 mg/ml, n=6
  decrease in ERG: no significant decrease in ERG
[1]; 10 mg/ml, n=6
  decrease in ERG: no significant decrease in ERG
[1]; 100 mg/ml, two eyes, listed as pH neutralized ascorbic acid
  decrease in ERG: 100%
[1]; [4]
  ocular findings (retinal detachment, cataracts, vitreous haze, retinal edema): neither cataracts nor retinal detachment; also recorded: vitreous haze and retinal edema
[2]; 250 μg (250 μg/ml)
  Degree of Corneal Neovascularization, OD: 68% and 69% and 70% and 61%
  Degree of Corneal Neovascularization, OS: 65% and 63% and 66% and 48%
[2]; 250 μg/ml
  mean inhibition of neovascularization: about 33%
[2]; 250 μg/ml, FIG. 2
  mean percent of neovascularization relative to total corneal area: about 67%
[2]; 250 μg/ml, listed as neutralized ascorbic acid
  mean inhibition of neovascularization: differences were not significant
[2]; 500 μg (500 μg/ml)
  Degree of Corneal Neovascularization, OD: 54% and 69% and 70% and 61%
  Degree of Corneal Neovascularization, OS: 50% and 63% and 66% and 48%
[2]; 500 μg/ml
  mean inhibition of neovascularization: about 40%
[2]; 500 μg/ml, mean ± standard deviation, n = 8
  mean percent of neovascularization relative to total corneal area: mean = 60.1 ± 8.5% (n = 8)
[2]; 500 μg/ml, mean ± standard deviation, n = 8, listed as ascorbic acid pH neutralized
  mean percent of neovascularization relative to total corneal area: about 60%
[2]; 500 μg/ml, mean ± standard deviation, n = 8, listed as neutralized ascorbic acid
  mean percent of neovascularization relative to total corneal area: 60.1%
[2]; 500 μg/ml, listed as neutralized ascorbic acid
  mean inhibition of neovascularization: 39.9%
[2]; 1 mg (1 mg/ml)
  Degree of Corneal Neovascularization, OD: 49% and 15% and 48% and 5%
  Degree of Corneal Neovascularization, OS: 47% and 27% and 29% and 17%
[2]; 1 mg/ml
  mean inhibition of neovascularization: about 69%
[2]; 1 mg/ml, mean ± standard deviation
  mean percent of neovascularization relative to total corneal area: mean = 29.6 ± 16.9%
[2]; 1 mg/ml, mean ± standard deviation, listed as ascorbic acid pH neutralized
  mean percent of neovascularization relative to total corneal area: about 31%
[2]; 1 mg/ml, listed as neutralized ascorbic acid
  mean inhibition of neovascularization: significant inhibition compared to control eyes
[2]; 5 mg (5 mg/ml)
  Degree of Corneal Neovascularization, OD: 20% and 35% and 0% and 60%
  Degree of Corneal Neovascularization, OS: 60% and 26% and 30% and 0%
[2]; 5 mg/ml
  mean inhibition of neovascularization: about 70%
[2]; 5 mg/ml, mean ± standard deviation, n = 8
  mean percent of neovascularization relative to total corneal area: mean = 28.9 ± 23.1% (n = 8)
[2]; 5 mg/ml, mean ± standard deviation, n = 8, listed as ascorbic acid pH neutralized
  mean percent of neovascularization relative to total corneal area: about 30%
[2]; 5 mg/ml, listed as neutralized ascorbic acid
  mean inhibition of neovascularization: significant inhibition compared to control eyes
[2]; 10 mg (10 mg/ml)
  Degree of Corneal Neovascularization, OD: 0% and 31% and 20% and 22%
  Degree of Corneal Neovascularization, OS: 0% and 27% and 15% and 26%
[2]; 10 mg/ml
  mean inhibition of neovascularization: about 81%
[2]; 10 mg/ml, mean ± standard deviation, n = 8
  mean percent of neovascularization relative to total corneal area: mean = 17.6 ± 11.9% (n = 8)
[2]; 10 mg/ml, mean ± standard deviation, n = 8, listed as ascorbic acid pH neutralized
  mean percent of neovascularization relative to total corneal area: about 19%
[2]; 10 mg/ml, listed as neutralized ascorbic acid
  mean inhibition of neovascularization: significant inhibition compared to control eyes
[2]; 50 mg (50 mg/ml)
  Degree of Corneal Neovascularization, OD: 10% and 15% and 32% and 3%
  Degree of Corneal Neovascularization, OS: 5% and 35% and 22% and 0%
[2]; 50 mg/ml
  mean inhibition of neovascularization: about 83.5%
[2]; 50 mg/ml, mean ± standard deviation, n = 8
  mean percent of neovascularization relative to total corneal area: mean = 15.2 ± 13.3% (n = 8)
[2]; 50 mg/ml, mean ± standard deviation, n = 8, listed as ascorbic acid pH neutralized
  mean percent of neovascularization relative to total corneal area: about 16.5%
[2]; 50 mg/ml, listed as neutralized ascorbic acid
  mean inhibition of neovascularization: significant inhibition compared to control eyes
[2]; 100 mg (100 mg/ml)
  Degree of Corneal Neovascularization, OD: 0% and 31% and 15% and 28%
  Degree of Corneal Neovascularization, OS: 54% and 5% and 3% and 0%
[2]; 100 mg/ml
  mean inhibition of neovascularization: about 82%
[2]; [3]
  mean percent of neovascularization relative to total corneal area: AVE = 17.0 ± 19.3% (n = 8)
[2]; 100 mg/ml, mean ± standard deviation, n = 8, listed as ascorbic acid pH neutralized
  mean percent of neovascularization relative to total corneal area: about 18%
[2]; 100 mg/ml, mean ± standard deviation, n = 8, listed as pH neutralized ascorbic acid
  mean percent of neovascularization relative to total corneal area: 17.0%
[2]; [4]
  mean inhibition of neovascularization: 83.0%
[2]; concentrations ranging from 100 mg/ml to 500 μg/ml
  inhibition of corneal neovascularization: significantly inhibited corneal neovascularization
